Assay results from a melting point compilation (Tetko et al.; mined from patent text by program, amines drawn as free bases though some values may be those of a salt).

melting point	Compound
81 to 83 °C	CC#CCOc1ccc(S(=O)(=O)NC2(C(=O)OC)CCCC2)cc1
332 to 341 °C	Cc1[nH]cc2c(=O)n(-c3ccc(Cl)cc3)nc-2c1-c1cccc(NS(C)(=O)=O)c1
232 to 242 °C	O=c1[nH]ncc2[nH]c(-c3ccc(OC(F)F)c4c3C=CC(C3CC3)O4)cc12 (stereo not drawn)
107 to 108 °C	COc1cc(C(C)C)c2c(c1)S(=O)(=O)N(COc1cc(C(F)(F)F)nn1C)C2=O
136 to 137 °C	CC(=O)NC(C)c1ccc(CN2CCN(c3nccs3)CC2)cc1 (stereo not drawn)
134 to 136 °C	CN(C)CCCOc1ccc2c(c1)C(c1ccccc1)CC(=O)N2 (stereo not drawn)
229 to 231 °C	O=C(O)C1=Cc2c(ccc(Cl)c2-c2ccccc2)OC1C(F)(F)F (stereo not drawn)
76 to 77 °C	CC(=O)OC(CCCN1CCN(c2ncc(F)cn2)CC1)c1ccc(F)cc1 (stereo not drawn)
155 to 165 °C	O=C(O)[C@H]1CCC(=O)[C@@H](n2nc(-c3c(-c4ccccc4)nn4ccccc34)ccc2=O)C1 (relative stereo)
148 to 150 °C	CCOCc1nc2c(N)nc3cccnc3c2n1CCCCS(=O)(=O)NC
193 to 195 °C	COc1cn(-c2ccc(N3CCOCC3=O)cc2F)nc(-c2ccnn2-c2ccccc2)c1=O
271 to 273 °C	Cc1nnc2n1-c1ccc(N)cc1C(c1ccccc1Cl)=CC2
85 to 88 °C	Cc1ccc(S(=O)(=O)OCC2Cc3cccc(C=CC(C)(C)C)c3O2)cc1 (stereo not drawn)
120 °C	COC(=O)CCCc1cc2nc(Cl)ccc2n1S(=O)(=O)c1ccc2c(c1)OCO2
128 °C	CCC1c2cc(F)ccc2-c2ccccc2N1S(=O)(=O)c1ccc(OC(=O)CC(C)(C)C)cc1 (stereo not drawn)
185 to 186 °C	CCOCc1nc2c(N)nc3cc(N4CCC4=O)ccc3c2n1CCCOC(C)C
152 to 154 °C	Clc1ccc(N2CCN(Cc3n[nH]c4c(Cl)cccc34)CC2)cc1
82 to 94 °C	CCOC(=O)c1c(C)nc(-c2ccccc2)nc1-c1ccc(F)cc1
295 to 296 °C	Cc1nc(-c2cccc(C(=O)O)c2)sc1C(=O)O
279 to 280 °C	N#Cc1c(C(N)=O)c2n(c1C1CC1)CCN(C(=O)Nc1ccc(C(=O)O)cc1)C2
302 °C	NS(=O)(=O)c1cccc(NC(=O)c2cnn3c(C(F)(F)F)cc(-c4ccc(Cl)c(Cl)c4)nc23)c1
> 200 °C	Nc1ccc(-c2cnc3c(c2)N(Cc2c(F)ccc(F)c2Cl)CCN3)cn1
151 to 152 °C	CCOC(=O)c1cc2c3ccccc3n(Cc3ccccc3)c2nc1N1CCOCC1
95 to 96 °C	Cc1cc(Cl)ccc1NC(=O)n1nc(Oc2cccc(C(F)(F)F)c2)cc1C
106 °C	COc1ccc(-c2cc(Cl)cc3c2N(C)C(CN)CO3)c(C)c1 (stereo not drawn)
190 to 191 °C	CCCc1cc(C(O)=S)cc(N)c1-c1ccccc1

melting point	Compound
263 to 265 °C	O=C(O)C1C=Nc2c(cccc2[N+](=O)[O-])C1=O (stereo not drawn)
78 to 79 °C	CC(C)OC(=O)N1CCN(c2ccn3ncc(Br)c3n2)CC1
231 to 232 °C	C[C@H](Cn1cccn1)n1cnc2cc3c(=O)n([C@H](C)Cn4cc(Cl)cn4)cnc3cc2c1=O
163 °C	NC(=O)N(Cc1ccc(C(F)(F)F)c(N2CCCCC2)c1)c1cccc2c1CC(O)CC2 (stereo not drawn)
188 to 190 °C	CSc1nc(-c2ccc(C#N)cc2)cn1-c1ccc(Br)cc1
175 to 177 °C	O=Nc1c(-c2ccccc2)nc2sccn12
205 to 208 °C	C1=C(CCc2ccco2)CCN(Cc2n[nH]c3c2CCc2ccccc2-3)C1
144 to 146 °C	COC(=O)c1ccc(-c2nc3c(OC(C)=O)cccc3s2)cc1
148 to 150 °C	CN(C)c1cccc2c1C1=NCCN1c1c(-c3noc(C4CC4)n3)ncn1-2
95 °C	BrCc1ccc2nc(-c3cccs3)ccc2c1
204 to 205 °C	COc1cc(OC)c2c(=O)[nH]c(-c3cc(C)c(OCCN4CCC4)c(C)c3)nc2c1
110 °C	Cc1ccc2c(c1)[C@H]1Cc3ccccc3[C@H]1N2 (relative stereo)
80 to 81 °C	CCC(O)(c1ccc(OCCCN2CCCCC2)cc1)c1cccc(Cl)c1 (stereo not drawn)
237 to 239 °C	Cc1cnc2c(C(N)=O)cnn2c1-c1cccc(C(F)(F)F)c1
92 to 112 °C	CC(=O)N1CCc2ccc(Cl)c(S)c2C1
196 to 198 °C	CC(=O)NCCC1Nc2ccccc2N2CCc3cccc1c32 (stereo not drawn)
158 °C	Cc1cc(OS(=O)(=O)C(F)(F)F)c2cccc(OCc3ccccc3)c2n1
205 to 206 °C	O=C1N(C/C=C/c2ccccc2[N+](=O)[O-])CCN1c1ccncc1
199 °C	CCC(C)Nc1c(-c2c(F)cc(F)cc2F)c(F)nc2ncncc12 (stereo not drawn)
278 to 280 °C	Nc1nc2cc(S(=O)(=O)c3ccccc3)ccc2s1
198 to 200 °C	CC(C)c1cc(NS(=O)(=O)c2cc(C3(O)CCC(=O)N3C)ccc2Cl)cc(C(C)C)c1O (stereo not drawn)
133 to 136 °C	Cc1ccccc1N(CN1C(=O)CSC1=O)C(=O)CCl
145 to 146 °C	Cc1scc2c1N(C(=O)NCCN1CCC(CCCC3CCCN3C)CC1)c1ccccc1NC2=O (stereo not drawn)
295 to 300 °C	CN1CCc2c(c3ccc(-n4ccc(-c5ccc(C(F)(F)F)nc5)cc4=O)cc3n2C)C1
118 to 120 °C	O=C1c2ccccc2CCc2cccnc21
168 °C	COc1ccc(S(=O)(=O)C2(C(=O)NO)CCN(Cc3ccc(-c4ccccc4)cc3)CC2)cc1

Second part, the compound before the results:

Compound	melting point
C#Cc1ccnc(NC(C)C)n1	84 to 85 °C
O=C(CCc1ccccc1)Cn1ccnc1	172 to 173 °C
CC(C)(O)c1cc(Cn2cncn2)cc(C(C)(C)C#N)c1	152 to 154 °C
COc1ccc(C(=O)Nc2ccccc2)cc1NC(=S)Nc1ccc(Cl)c(C(F)(F)F)c1	172 to 173 °C
Cc1ccc([N+](=O)[O-])c(=O)[nH]1	222 to 223 °C
Oc1ccccc1Cc1ccc2ccccc2c1O	124 to 125 °C
CCCc1c2nc(C(=O)Nc3ccccc3)cc(Cl)c2cc2c(=O)cc(C(=O)Nc3ccccc3)oc12	> 315 °C
Oc1ccc2c(c1)COc1c-2cc2ccc(O)cc2c1-c1ccc(Cl)cc1	239 to 242 °C
COCCC(=O)OC1(C(=O)CO)CCC2C3CCC4=CC(=O)CCC4(C)C3C(O)CC21C (stereo not drawn)	172 °C
Cc1c(CCOCCO[N+](=O)[O-])cc(-c2ccc(S(C)(=O)=O)cc2)n1-c1ccccc1	78 to 80 °C
C=CCC1=C(Cl)C(=O)c2ccccc2C1=O	69 to 70 °C
O=C(O)CCCc1ccc([N+](=O)[O-])cn1	108 to 110 °C
O=S(=O)(Cl)c1ccc(-c2cccs2)s1	63 to 64 °C
CNS(=O)(=O)c1cc(OC)c(OC)c(C(=O)NCC2CCCN2C)c1 (stereo not drawn)	111 to 112 °C
Brc1ccc2cc(Nc3ccccc3)ccc2c1	126 to 128 °C
CC(=O)OC1CCC2(C)C(CCC3C4CC(C)=C(C(C)=O)C4(C)CC(=O)C32)C1 (stereo not drawn)	200 to 208 °C
CC(C(=O)O)c1ccc(-c2ccc(Br)cc2)c(F)c1 (stereo not drawn)	133 to 135 °C
COc1ccccc1NC(=O)Nc1nc(Oc2ccc3ccccc3c2)nc(N(CCC(=O)O)Cc2ccc(C(F)(F)F)cc2C(F)(F)F)n1	192 °C
O=[N+]([O-])C1(Cc2ccccc2)CN(Cc2ccccc2)CCN(Cc2ccccc2)C1	66 to 69 °C
CCCC12CCC(c3ccc(C#N)c(F)c3)(CC1)CC2	63 °C
O=C(O)c1cc(F)c(F)c(I)c1F	122 to 124 °C
CCCCCS(=O)(=O)NC(=O)c1ccc2nc(C)n(Cc3ccc(NC)cc3Cl)c2n1	185 to 186 °C
COc1ccc(-n2cc(/C=C(\C#N)C(=O)NS(=O)(=O)c3ccccc3)c(-c3ccc(Cl)c(F)c3)n2)cc1Cl	263 to 264 °C

Compound	melting point
CS(=O)(=O)Nc1cc(C(O)CNCCCCCCOCC/C=C/c2ccc(F)cc2)ccc1O (stereo not drawn)	79 to 80 °C
CC(=O)OCCOCn1cnc2c(Cl)nc(Cl)nc21	96 to 99 °C
CSC(=S)N1C(CO)Cc2c([nH]c3ccccc23)C1CO (stereo not drawn)	179 to 180 °C
CC(C)NC(=O)C(O)C(Oc1ccccc1)c1ccccc1 (stereo not drawn)	166 to 168 °C
CNCCc1c[nH]c2ccc3c(=O)[nH]ccc3c12	160 °C
NC(=Nc1ccc(CCCC(=O)Oc2cccc(Nc3ccccc3)c2)cc1)c1cccs1	110 to 112 °C
CCCCCN1CC[C@@H](c2ccc(Cl)cc2)[C@H](CO)C1 (racemic)	125 to 128 °C
COc1ccnc2[nH]cc(C(C)=O)c12	> 210 °C
O=[N+]([O-])c1ccc(OCC2CC2)c(C(F)(F)F)c1	41 to 44 °C
CC(CNC12CC3CC(CC(C3)C1)C2)N1CCN(c2ccccn2)CC1 (stereo not drawn)	67 to 68 °C
O=C(O)Cc1c(C(=O)c2ccc(Cl)c(Cl)c2)[nH]c2cc(Cl)ccc12	206 to 209 °C
CCCn1c(=O)[nH]c(=O)c2[nH]c(/C=C/c3cc(OC)c(OC)c(OC)c3)nc21	286 to 291 °C
CC(C)(C)CNc1cc(N2CCNCC2)nc(NC(C)(C)C)n1	120 to 124 °C
CC(C)[C@@H]1CC[C@@H](C)C[C@@]1(O)CO	48 to 50 °C
CC1C(Cc2ccccc2)C(=O)N(Cc2ccccc2)c2ccccc2N1C(=O)CN1C(=O)c2ccccc2C1=O (stereo not drawn)	213 to 214 °C
COC(=O)CC1=C(C)C(=Cc2ccc(S(=O)(=O)NC(C)=O)cc2)c2ccc(OC)cc21	172 to 174 °C
N#Cc1ccc2c(c1)Sc1ccc(N)cc1C=C2	181 to 183 °C
O=C(OCc1ccc(OCCc2ccc(Cl)cc2)cc1)c1cccnc1	77 to 78 °C
CC(=O)OCC(C(OC(C)=O)c1ccc([N+](=O)[O-])cc1)[N+](=O)[O-] (stereo not drawn)	63 to 66 °C
COC(=O)Cc1ccc(OCCN)c(OC)c1	77 to 80 °C
CNC(=O)C(Cc1c[nH]c2ccccc12)NC(=O)Nc1n[nH]c(=S)s1 (stereo not drawn)	205 to 210 °C
O=C(Nc1ccc(Cl)cc1)c1c(O)c2cccnc2n(-c2ccccc2)c1=O	281 to 286 °C
O=C(N[C@H](Cc1cccc(OCC(F)(F)F)c1)[C@@H](O)c1ccc(F)cc1)c1ccc(F)c2ccccc12 (racemic)	192 to 193 °C
